# Laboratory results reported in US12252492B2, “Substituted fused pyrrolo-diazepinones and uses thereof” (Northwestern University, priority 2018, dated 2025).
# Assays:
# Assay type in all cases: cell-based, human
# NCI-H23 = assay: NCI60 one-dose screen, NCI-H23; conditions: NCI-H23 (Non-Small Cell Lung Cancer); NCI 60 one-dose, 10^-5 M
# Experimental: (§1) Anti-cancer activity screening of all compounds was performed by the NCI Developmental Therapeutics Program (DTP) through their NCI60 screening initiative. Assay details can be found at the website dtp.cancer.gov/discovery_development/nci-60/methodology.htm. Information from this website is reproduced here for convenience.
# (§2) As of early 2007 all compounds submitted to the NCI 60 Cell screen are tested initially at a single high dose (10^-5 M) in the full NCI 60 cell panel. Only compounds which satisfy pre-determined threshold inhibition criteria in a minimum number of cell lines will progress to the full 5-dose assay. The threshold inhibition criteria for progression to the 5-dose screen was selected to efficiently capture compounds with anti-proliferative activity based on careful analysis of historical DTP screening data. The threshold criteria may be updated as additional data becomes available.
# (§3) The One-dose data will be reported as a mean graph of the percent growth of treated cells and will be similar in appearance to mean graphs from the 5-dose assay. […]
# (§4) Following drug addition, the plates are incubated for an additional 48 h at 37° C., 5% CO2, 95% air, and 100% relative humidity. […] Bound stain is subsequently solubilized with 10 mM trizma base, and the absorbance is read on an automated plate reader at a wavelength of 515 nm. […]
# SK-OV-3 = assay: NCI60 one-dose screen, SK-OV-3; conditions: SK-OV-3 (Ovarian Cancer); NCI 60 one-dose, 10^-5 M
# Experimental: as §1, §2, §3, §4
# HL-60(TB) = assay: NCI60 one-dose screen, HL-60(TB); conditions: HL-60(TB) (Leukemia); NCI 60 one-dose, 10^-5 M
# Experimental: as §1, §2, §3, §4
# 786-0 = assay: NCI60 one-dose screen, 786-0; conditions: 786-0 (Renal Cancer); NCI 60 one-dose, 10^-5 M
# Experimental: as §1, §2, §3, §4
# OVCAR-4 = assay: NCI60 one-dose screen, OVCAR-4; conditions: OVCAR-4 (Ovarian Cancer); NCI 60 one-dose, 10^-5 M
# Experimental: as §1, §2, §3, §4
# OVCAR-5 = assay: NCI60 one-dose screen, OVCAR-5; conditions: OVCAR-5 (Ovarian Cancer); NCI 60 one-dose, 10^-5 M
# Experimental: as §1, §2, §3, §4
# SF-295 = assay: NCI60 one-dose screen, SF-295; conditions: SF-295 (CNS Cancer); NCI 60 one-dose, 10^-5 M
# Experimental: as §1, §2, §3, §4
# NCI-H460 = assay: NCI60 one-dose screen, NCI-H460; conditions: NCI-H460 (Non-Small Cell Lung Cancer); NCI 60 one-dose, 10^-5 M
# Experimental: as §1, §2, §3, §4
# SNB-19 = assay: NCI60 one-dose screen, SNB-19; conditions: SNB-19 (CNS Cancer); NCI 60 one-dose, 10^-5 M
# Experimental: as §1, §2, §3, §4
# HOP-62 = assay: NCI60 one-dose screen, HOP-62; conditions: HOP-62 (Non-Small Cell Lung Cancer); NCI 60 one-dose, 10^-5 M
# Experimental: as §1, §2, §3, §4
# SK-MEL-28 = assay: NCI60 one-dose screen, SK-MEL-28; conditions: SK-MEL-28 (Melanoma); NCI 60 one-dose, 10^-5 M
# Experimental: as §1, §2, §3, §4
# U251 = assay: NCI60 one-dose screen, U251; conditions: U251 (CNS Cancer); NCI 60 one-dose, 10^-5 M
# Experimental: as §1, §2, §3, §4
# NCI-H522 = assay: NCI60 one-dose screen, NCI-H522; conditions: NCI-H522 (Non-Small Cell Lung Cancer); NCI 60 one-dose, 10^-5 M
# Experimental: as §1, §2, §3, §4
# MCF7 = assay: NCI60 one-dose screen, MCF7; conditions: MCF7 (Breast Cancer); NCI 60 one-dose, 10^-5 M
# Experimental: as §1, §2, §3, §4
# LOX IMVI = assay: NCI60 one-dose screen, LOX IMVI; conditions: LOX IMVI (Melanoma); NCI 60 one-dose, 10^-5 M
# Experimental: as §1, §2, §3, §4
# SR = assay: NCI60 one-dose screen, SR; conditions: SR (Leukemia); NCI 60 one-dose, 10^-5 M
# Experimental: as §1, §2, §3, §4
# MOLT-4 = assay: NCI60 one-dose screen, MOLT-4; conditions: MOLT-4 (Leukemia); NCI 60 one-dose, 10^-5 M
# Experimental: as §1, §2, §3, §4
# SN12C = assay: NCI60 one-dose screen, SN12C; conditions: SN12C (Renal Cancer); NCI 60 one-dose, 10^-5 M
# Experimental: as §1, §2, §3, §4
SMILES,Growth Percent (NCI-H23) [%],Growth Percent (SK-OV-3) [%],Growth Percent (HL-60(TB)) [%],Growth Percent (786-0) [%],Growth Percent (OVCAR-4) [%],Growth Percent (OVCAR-5) [%],Growth Percent (SF-295) [%],Growth Percent (NCI-H460) [%],Growth Percent (SNB-19) [%],Growth Percent (HOP-62) [%],Growth Percent (SK-MEL-28) [%],Growth Percent (U251) [%],Growth Percent (NCI-H522) [%],Growth Percent (MCF7) [%],Growth Percent (LOX IMVI) [%],Growth Percent (SR) [%],Growth Percent (MOLT-4) [%],Growth Percent (SN12C) [%]
CC(=O)N1c2ccccc2NC2=C(C(=O)N(C)C2(C)C)C1c1ccccc1 (stereo not drawn) [NUCC-60872],50.21,55.42,7.50,80.09,55.16,62.50,45.97,21.87,39.87,61.59,56.02,18.07,18.58,16.41,37.52,16.70,33.27,40.74
CC(=O)N1c2ccccc2NC2=C(C(=O)N(Cc3ccccc3)C2(C)C)C1c1ccco1 (stereo not drawn) [NUCC-608455],20.85,22.71,9.63,21.45,48.83,25.92,−0.75,4.83,23.61,33.09,57.26,24.64,21.79,15.26,25.57,23.29,28.58,35.91
